Starred links: 1 amine or outer side, 2 acyl side, 3 side chain; linkers in the order of their positions; H or OH if unused. Positions of bridges follow the written chain, without caps; N, C: chain ends. Non-standard residues stand in square brackets, D forms with d. Residues, ends and D or L forms follow the SMILES beside them. Chains are numbered I, II in the order given. TATA = O=C(CC[*:1])N1CN(C(=O)CC[*:2])CN(C(=O)CC[*:3])C1; X2 = O=C(CCOCCOCCOCCOCCOCCn1cc(CCC(=O)[*:2])nn1)[*:1]; Hyp = O=C(O)[C@@H]1C[C@@H](O)CN1; hArg = N=C(N)NCCCC[C@H](N)C(=O)O; tBuAla = CC(C)(C)C[C@H](N)C(=O)O; Nle = CCCC[C@H](N)C(=O)O
What follows are compounds tested against CD137 (Homo sapiens, UniProt Q07011) (assay: CD137 reporter assay, co-culture with EphA2 tumour cells). Settings: tumour target EphA2, co-culture with PC3, 6 h.
CD137, sequence (Q07011 24-255): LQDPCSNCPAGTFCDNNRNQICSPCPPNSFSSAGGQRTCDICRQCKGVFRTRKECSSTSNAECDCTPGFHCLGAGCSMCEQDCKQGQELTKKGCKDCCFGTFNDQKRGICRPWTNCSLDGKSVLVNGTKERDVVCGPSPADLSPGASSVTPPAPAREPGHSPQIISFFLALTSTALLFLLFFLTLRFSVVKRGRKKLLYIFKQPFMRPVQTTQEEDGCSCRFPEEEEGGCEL
Type: cell-based
Design: host or cells: Jurkat reporter cells
Description: Culture medium referred to as R1 media is prepared by adding 1% FBS to RPMI-1640 (component of Promega kit CS196005). Serial dilutions of test articles in R1 are prepared in a sterile 96 well-plate. Use 25 μl per well of test articles or R1 (as a background control) to designated wells in white cell culture plate. Tumour cells* are harvested and resuspended at a concentration of 400,000 cells/mL in R1 media. Twenty five (25) μL/well tumour cells are used in white cell culture plate. Jurkat cells (Promega kit CS196005, 0.5 mL) are thawed in the water bath and then added to 5 ml pre-warmed R1 medium. Twenty five (25) μL/well Jurkat cells are used in white cell culture plate. Incubate the cells and test articles for 6h at 37° C., 5% CO2. At the end of 6 h, add 75 μl/well Bio-Glo™ (Promega) and incubate for 10 min before reading luminescence in a plate reader (Clariostar, BMG). The fold change relative to cells (Jurkat cells+Cell line used in co-culture) is calculated and plotted in GraphPad Prism as log(agonist) vs response to determine EC50 (nM) and Fold Induction over background (Max)

Structure (SMILES) | Fold Induction over Background | EC50
CCCC[C@@H]1NC(=O)[C@H](Cc2ccc(O)cc2)NC(=O)[C@@H]2CCCN2C(=O)[C@H](CC(=O)O)NC(=O)[C@H](C)NC(=O)[C@H](Cc2ccccc2)NC(=O)[C@@H]2CSCCC(=O)N3CN(CN(C3)C(=O)CCSC[C@@H](C(=O)N[C@@H](C)C(N)=O)NC1=O)C(=O)CCSC[C@H](NC(C)=O)C(=O)N[C@@H](CC(C)(C)C)C(=O)N1CCC[C@H]1C(=O)N[C@@H](CCCCNC(=O)CCOCCOCCOCCOCCOCCOCCOCCOCCOCCOCCOCCOCCn1cc(CCC(=O)NCCC(=O)N(C)CC(=O)N(C)CC(=O)N(C)CC(=O)N(C)CC(=O)N(C)CC(=O)N(C)CC(=O)N(C)CC(=O)N(C)CC(=O)N(C)CC(=O)N(C)CC(=O)N[C@@H](C)C(=O)N[C@@H](CCCCNC(=N)N)C(=O)N[C@@H](CC(=O)O)C(=O)N[C@H]3CSCCC(=O)N4CN5CN(C4)C(=O)CCSC[C@H](NC(=O)[C@H](CC(C)C)NC(=O)[C@@H]4CCCN4C(=O)[C@H](CC(N)=O)NC(=O)[C@H](C(C)C)NC(=O)[C@H](CC(C)C)NC(=O)[C@@H]4C[C@@H](O)CN4C3=O)C(=O)N[C@@H](CC(C)C)C(=O)N[C@@H](Cc3c[nH]cn3)C(=O)N3CCC[C@H]3C(=O)N[C@H](CC(=O)O)C(=O)N[C@@H](Cc3c[nH]c4ccccc34)C(=O)N[C@@H](CCCCNC(=N)N)C(=O)N[C@H](C(N)=O)CSCCC5=O)nn1)C(=O)N[C@H](C)C(=O)N1CCC[C@H]1C(=O)N[C@@H](Cc1ccc(O)cc1)C(=O)N2 [BCY10568] | 32 fold | –
CCCC[C@@H]1NC(=O)[C@H](Cc2ccc(O)cc2)NC(=O)[C@@H]2CCCN2C(=O)[C@H](CC(=O)O)NC(=O)[C@H](C)NC(=O)[C@H](Cc2ccccc2)NC(=O)[C@@H]2CSCCC(=O)N3CN(CN(C3)C(=O)CCSC[C@@H](C(=O)N[C@@H](C)C(N)=O)NC1=O)C(=O)CCSC[C@H](NC(C)=O)C(=O)N[C@@H](CC(C)(C)C)C(=O)N1CCC[C@H]1C(=O)N[C@@H](CCC(=O)O)C(=O)N[C@H](CCCCNC(=O)CCOCCOCCOCCOCCOCCOCCOCCOCCOCCOCCOCCOCCn1cc(CCC(=O)NCCC(=O)N(C)CC(=O)N(C)CC(=O)N(C)CC(=O)N(C)CC(=O)N(C)CC(=O)N(C)CC(=O)N(C)CC(=O)N(C)CC(=O)N(C)CC(=O)N(C)CC(=O)N[C@@H](C)C(=O)N[C@@H](CCCCNC(=N)N)C(=O)N[C@@H](CC(=O)O)C(=O)N[C@H]3CSCCC(=O)N4CN5CN(C4)C(=O)CCSC[C@H](NC(=O)[C@H](CC(C)C)NC(=O)[C@@H]4CCCN4C(=O)[C@H](CC(N)=O)NC(=O)[C@H](C(C)C)NC(=O)[C@H](CC(C)C)NC(=O)[C@@H]4C[C@@H](O)CN4C3=O)C(=O)N[C@@H](CC(C)C)C(=O)N[C@@H](Cc3c[nH]cn3)C(=O)N3CCC[C@H]3C(=O)N[C@H](CC(=O)O)C(=O)N[C@@H](Cc3c[nH]c4ccccc34)C(=O)N[C@@H](CCCCNC(=N)N)C(=O)N[C@H](C(N)=O)CSCCC5=O)nn1)C(=O)N1CCC[C@H]1C(=O)N[C@@H](Cc1ccc(O)cc1)C(=O)N2 [BCY10570] | 38 fold | 0.41 nM
CCCC[C@@H]1NC(=O)[C@H](Cc2ccc(O)cc2)NC(=O)[C@@H]2CCCN2C(=O)[C@H](CC(=O)O)NC(=O)[C@H](C)NC(=O)[C@H](Cc2ccccc2)NC(=O)[C@@H]2CSCCC(=O)N3CN(CN(C3)C(=O)CCSC[C@@H](C(=O)N[C@@H](C)C(N)=O)NC1=O)C(=O)CCSC[C@H](NC(C)=O)C(=O)N[C@@H](CC(C)(C)C)C(=O)N1CCC[C@H]1C(=O)N[C@@H](CCCCNC(=O)CCc1cn(CCOCCOCCOCCOCCOCCC(=O)N[C@@H](C)C(=O)N[C@@H](CCCCNC(=N)N)C(=O)N[C@@H](CC(=O)O)C(=O)N[C@H]3CSCCC(=O)N4CN5CN(C4)C(=O)CCSC[C@H](NC(=O)[C@H](CC(C)C)NC(=O)[C@@H]4CCCN4C(=O)[C@H](CC(N)=O)NC(=O)[C@H](C(C)C)NC(=O)[C@H](CC(C)C)NC(=O)[C@@H]4C[C@@H](O)CN4C3=O)C(=O)N[C@@H](CC(C)C)C(=O)N[C@@H](Cc3c[nH]cn3)C(=O)N3CCC[C@H]3C(=O)N[C@H](CC(=O)O)C(=O)N[C@@H](Cc3c[nH]c4ccccc34)C(=O)N[C@@H](CCCCNC(=N)N)C(=O)N[C@H](C(N)=O)CSCCC5=O)nn1)C(=O)N[C@H](C)C(=O)N1CCC[C@H]1C(=O)N[C@@H](Cc1ccc(O)cc1)C(=O)N2 [BCY10574] (I: A[hArg]DC[Hyp]LVNPLCLHP[dD]W[hArg]C-NH2 / II: Ac-C[tBuAla]PK[dA]PYCFADPY[Nle]CA-NH2; linker I:4-I:11-I:18, II:1-II:8-II:15 via TATA; linker I:N-II:4 via X2) | 32 fold | 1 nM

Source: patent US11453703B2, “Heterotandem bicyclic peptide complexes” (BicycleTX Limited, priority 2018, dated 2022)
